Laboratory results taken from PMC10052025 (Pharmaceutics, 2023).
In brackets after ≈: the same amount, converted by molar mass. Like-named read-outs stand apart in the source and are kept apart here. Blank lines part the entries; values can stand above or below the compound they belong to.

Assays:
OATP1B1/3 = details: humans, cited from earlier work
OATP1B1 [1] = target: T1, OATP1B1 (Homo sapiens, UniProt Q9Y6L6); parameters: FLAG; expressed in transfected cells; details: cited from earlier work
T1 sequence (Q9Y6L6 1-691): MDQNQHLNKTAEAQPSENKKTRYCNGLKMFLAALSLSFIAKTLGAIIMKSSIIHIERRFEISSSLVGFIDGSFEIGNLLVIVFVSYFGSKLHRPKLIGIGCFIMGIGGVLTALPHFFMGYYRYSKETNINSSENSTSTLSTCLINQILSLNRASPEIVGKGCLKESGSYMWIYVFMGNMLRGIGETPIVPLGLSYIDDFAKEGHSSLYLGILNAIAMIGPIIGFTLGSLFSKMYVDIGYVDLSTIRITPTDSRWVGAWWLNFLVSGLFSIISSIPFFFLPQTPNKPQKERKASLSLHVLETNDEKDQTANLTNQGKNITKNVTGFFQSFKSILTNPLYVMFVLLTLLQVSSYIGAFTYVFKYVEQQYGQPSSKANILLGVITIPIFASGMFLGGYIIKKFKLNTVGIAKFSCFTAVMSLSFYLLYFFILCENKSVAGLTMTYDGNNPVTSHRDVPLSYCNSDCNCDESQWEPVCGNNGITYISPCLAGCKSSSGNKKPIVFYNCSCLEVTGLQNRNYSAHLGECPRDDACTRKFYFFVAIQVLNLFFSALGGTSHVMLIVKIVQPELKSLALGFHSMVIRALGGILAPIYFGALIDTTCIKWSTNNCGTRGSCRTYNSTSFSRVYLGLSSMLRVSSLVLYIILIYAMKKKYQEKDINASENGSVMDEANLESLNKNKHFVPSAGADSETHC

OATP1B3 [2] = target: T2, OATP1B3 (Homo sapiens, UniProt Q9NPD5); experiment: Prediction of OATP1B3-mediated DDI using the static R-value model; parameters: FLAG; expressed in transfected cells; details: predicted AUC ratio
T2 sequence (Q9NPD5 1-702): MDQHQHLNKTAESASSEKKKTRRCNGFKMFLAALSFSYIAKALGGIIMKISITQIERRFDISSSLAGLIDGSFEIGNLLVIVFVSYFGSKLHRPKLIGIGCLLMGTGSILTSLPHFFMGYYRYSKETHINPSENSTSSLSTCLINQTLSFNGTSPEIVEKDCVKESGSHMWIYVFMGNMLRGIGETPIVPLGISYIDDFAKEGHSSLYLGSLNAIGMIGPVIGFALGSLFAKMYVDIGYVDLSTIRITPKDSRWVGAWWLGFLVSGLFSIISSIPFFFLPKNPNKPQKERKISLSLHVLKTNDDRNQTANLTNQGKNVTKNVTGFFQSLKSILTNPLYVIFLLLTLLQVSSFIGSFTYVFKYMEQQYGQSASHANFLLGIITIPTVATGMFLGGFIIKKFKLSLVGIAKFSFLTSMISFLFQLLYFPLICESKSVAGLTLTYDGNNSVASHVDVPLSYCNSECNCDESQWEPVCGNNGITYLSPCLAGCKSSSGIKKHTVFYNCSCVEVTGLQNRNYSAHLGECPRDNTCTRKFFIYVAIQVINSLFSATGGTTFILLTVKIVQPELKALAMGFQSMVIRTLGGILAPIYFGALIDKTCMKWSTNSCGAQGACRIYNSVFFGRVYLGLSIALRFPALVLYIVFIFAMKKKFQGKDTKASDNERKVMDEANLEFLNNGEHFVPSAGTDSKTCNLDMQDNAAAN
Procedure: (§1) The R-value, which represents the predicted AUC ratio of the substrate drug in the presence versus absence of an inhibitor drug, was calculated based on Equation (2), following the US-FDA final guidance with the parameters summarized in Table 1.
(§2) The fa is the fraction absorbed. […] Fg is the fraction that escaped gut metabolism (Fg). The ka is the absorption rate constant. […] Qh is the hepatic blood flow rate (1500 mL/min). RB is the blood-to-plasma concentration ratio. […] (3) Iin,max=Imax+faFg×ka×Dose/Qh×RB

[3] = Maximum aqueous soluble concentration; type: physicochemical; details: aqueous solution (not further specified)
[4] = steady state, read-out: Cmax, plasma, cited from earlier work
[5] = Nicardipine pharmacokinetic parameters for R-value determination; details: Estimated based on Equation (3)
Procedure: The fa is the fraction absorbed. […] Fg is the fraction that escaped gut metabolism (Fg). The ka is the absorption rate constant. […] Qh is the hepatic blood flow rate (1500 mL/min) [32]. RB is the blood-to-plasma concentration ratio. […] RB of 0.63 was used as a worst-case scenario.

[6] = human plasma; cited from earlier work
OATP1B1 [7] = target: T1, OATP1B1; experiment: cell-based; details: for OATP1B1-mediated transport after preincubation: washed, substrate without inhibitor; for IC50: [3H]-E217βG 1 µM, 2 min
Procedure: (§3) HEK293 stable cell lines expressing FLAG-tagged OATP1B1 (HEK293-FLAG-OATP1B1) or FLAG-tagged OATP1B3 (HEK293-FLAG-OATP1B3) have been published previously. Both HEK293 stable cell lines were cultured in DMEM culture media supplemented with 9% FBS (abbreviated as FBS–DMEM), antibiotic antimycotic, and 600 µg/mL G418 as published previously.
(§4) HEK293-FLAG-OATP1B1 and HEK293-FLAG-OATP1B3 cells (less than 40 passages) were seeded in poly-L-lysine coated 24-well plates at a density of 1.5 × 10^5 cells per well and allowed to grow for 48 h until confluent before the transport studies. [^3H]-E217βG (1 µM, 2 min) and [^3H]-CCK-8 (1 µM, 3 min) were used as substrates for OATP1B1 and OATP1B3 in HEK293-FLAG-OATP1B1 and HEK293-FLAG-OATP1B3 cells, respectively. […] After preincubation, cells were washed three times with HBSS buffer and incubated with HBSS buffer containing substrate, in the […] of vehicle control or inhibitor. […] At the end of substrate incubation, cells were washed three times with ice-cold HBSS buffer and lysed in PBS containing 0.5% Triton X-100. Liquid scintillation counting was determined and normalized to the protein concentration, after correcting for any nonspecific binding in the poly-L-lysine-coated blank plates, as published previously.
(§5) (1) E=Bottom+Top−Bottom/(1+C/IC50) where E is the remaining substrate transport at a given inhibitor concentration (C).

OATP1B1 [8] = target: T1, OATP1B1; experiment: Prediction of OATP1B1-mediated DDI using the static R-value model; parameters: FLAG; expressed in transfected cells; details: predicted AUC ratio
Procedure: as §1, §2

OATP1B3 [9] = target: T2, OATP1B3
Procedure: as §3, §4, §5

[10] = system: OATP1B1 c. 521CC genotype; details: subjects with OATP1B1 c. 521CC genotype; cited from earlier work
[11] = from co-incubation IC50, FBS-DMEM
[12] = from pre + co-incubation IC50, HBSS
[13] = from pre + co-incubation IC50, FBS-DMEM

SMILES: COCC(=O)O[C@]1(CCN(C)CCCc2nc3ccccc3[nH]2)CCc2cc(F)ccc2[C@@H]1C(C)C [Mibefradil, mibefradil]
AUC Ratio (OATP1B1/3; AUC of atorvastatin on coadministration, ref 10 in text, ref 8 in Table 3): 4.43
AUC Ratio (OATP1B1/3; AUC of pravastatin on coadministration of mibefradil): 1.32

SMILES: COC(=O)C1=C(C)NC(C)=C(C(=O)OCC(C)C)C1c1ccccc1[N+](=O)[O-] (stereo not drawn) [Nisoldipine, nisoldipine]
AUC Ratio (OATP1B1/3; AUC of telmisartan on coadministration): 2.32

SMILES: CCOC(=O)C1=C(COCCN)NC(C)=C(C(=O)OC)C1c1ccccc1Cl (stereo not drawn) [amlodipine]
predicted DDI potential based on IC50 values against OATP1B1 (OATP1B1 [1]; IC50 determined without inhibitor-preincubation step): no DDI potential

R (20 mg) (OATP1B3 [2]; [11]): 1.0
R (20 mg) (OATP1B3 [2]; from co-incubation IC50, HBSS): 1.0
R (20 mg) (OATP1B3 [2]; [12]): 1.1
R (30 mg) (OATP1B3 [2]; from co-incubation IC50, HBSS): 1.0
R (30 mg) (OATP1B3 [2]; [12]): 1.2
R (40 mg) (OATP1B3 [2]; from co-incubation IC50, HBSS): 1.0
R (40 mg) (OATP1B3 [2]; [12]): 1.3
solubility [3]: 4 µM (≈ 1.92 µg/mL)
Iin, max (estimated total maximum plasma concentration at the inlet to the liver) [5]: 8.46 µM
effect of preincubation on OATP1B1-mediated transport (OATP1B1 [7]; 0.5 µM, 10 min preincubation in HBSS buffer): no effect
OATP1B1-mediated transport after preincubation (OATP1B1 [7]; 0.5 µM, 30 min preincubation in HBSS buffer): 0.78 ± 0.04 fold of the control
OATP1B1-mediated transport after preincubation (OATP1B1 [7]; 0.5 µM, 1 h preincubation in HBSS buffer): 0.82 ± 0.04 fold of the control
effect of preincubation on OATP1B1-mediated transport (OATP1B1 [7]; 0.5 µM, any preincubation duration (10 min–1 h) in FBS-containing medium): no effect
effect of preincubation on OATP1B1-mediated transport (OATP1B1 [7]; 2 and 4 µM, HBSS buffer and FBS-containing medium, all preincubation time points): significantly reduced
IC50 (OATP1B1 [7]; IC50, Co-incubation only (no preincubation), FBS-DMEM row): 2800 ± 2440 nM
IC50 (OATP1B1 [7]; IC50, Co-incubation only (no preincubation), HBSS row): 3550 ± 2460 nM
IC50 (OATP1B1 [7]; IC50, Pre + co-incubation, 30 min preincubation in FBS-DMEM (9% FBS)): 1570 ± 1400 nM
IC50 (OATP1B1 [7]; IC50, Pre + co-incubation, 30 min preincubation in protein-free HBSS buffer): 980 ± 260 nM
R (20 mg) (OATP1B1 [8]; [11]): 1.1
R (20 mg) (OATP1B1 [8]; from co-incubation IC50, HBSS): 1.1
R (20 mg) (OATP1B1 [8]; [13]): 1.1
R (20 mg) (OATP1B1 [8]; [12]): 1.2
R (30 mg) (OATP1B1 [8]; [11]): 1.1
R (30 mg) (OATP1B1 [8]; from co-incubation IC50, HBSS): 1.1
R (30 mg) (OATP1B1 [8]; [13]): 1.2
R (30 mg) (OATP1B1 [8]; [12]): 1.3
R (40 mg) (OATP1B1 [8]; [11]): 1.2
R (40 mg) (OATP1B1 [8]; from co-incubation IC50, HBSS): 1.1
R (40 mg) (OATP1B1 [8]; [13]): 1.3
R (40 mg) (OATP1B1 [8]; [12]): 1.4
effect of preincubation on OATP1B3-mediated transport (OATP1B3 [9]; 0.5 µM, any treatment condition): did not significantly affect
effect of preincubation on OATP1B3-mediated transport (OATP1B3 [9]; FBS-containing medium, 4 µM for 30 min and 2 or 4 µM for 1 h): small, yet significant, reductions
SMILES: COC(=O)C1=C(C)NC(C)=C(C(=O)OCCN(C)Cc2ccccc2)C1c1cccc([N+](=O)[O-])c1 (stereo not drawn) [nicardipine]
Cmax ([4]; 20 mg 3 times a day): 70 nM
Cmax ([4]; 30 mg 3 times a day): 170 nM
Cmax ([4]; 40 mg 3 times a day): 260 nM
fu (Fraction unbound in the plasma) [6]: 0.05 [29]
inhibition of OATP1B1-mediated transport (OATP1B1 [1]; 20 µM): 65%

SMILES: CC[C@H](C)C(=O)O[C@H]1C[C@H](O)C=C2C=C[C@H](C)[C@H](CC[C@@H](O)C[C@@H](O)CC(=O)O)[C@H]21 [pravastatin]
increased AUC, fold of the reference [10]: 1.9 fold
